Measurements reported in patent publication US20180289605A1, “NON-AQUEOUS COMPOSITION FOR HAIR FRIZZ REDUCTION” (The Procter & Gamble Company, priority 2017, published 2018).

Legend:
[1] = Dynamic Vapor Sorption (DVS) % water reduction of treated hair
Description: The % water reduction is calculated as follows:
% Water reduction=[(B−A)×100]/B

[2] = Additional evaluations: expert rating of hair switches for frizz, clean feel and greasy feel; conditions: non-aqueous compositions, Tables 9 and 10
Description: […] The switch is kept at high humidity (above 85%) for 2 hours. Then, ten experts are asked to rate each hair switch in terms of frizz, clean feel, and greasy feel, based on a 5 point scale, 5 being the highest and 1 being the lowest rating.
Additional non-aqueous leave-on treatment compositions are prepared (Tables 9 and 10) according to the procedure described above, which are used to treat hair switches using the procedure described above (amount of 0.10 g of composition per g of hair). The switch is kept at high humidity (above 85%) for 2 hours. Then, ten experts are asked to rate each hair switch in terms of frizz, clean feel and greasy feel, based on a 5 point scale, 5 being the highest and 1 being the lowest rating.

[3] = Class I materials, 1% wt/vol, hair 0% RH versus 90% RH, versus control hair
[4] = Class II materials, hair 0% RH versus 90% RH, versus control hair

| Molecule | Results of hair switch rating in words (frizz protection, clean feel, greasy feel) [2] | % Water reduction [1, 4] [%] | also measured |
| --- | --- | --- | --- |
| O=C(O)c1ccc(O)cc1O [2,4-Dihydroxybenzoic acid] | provide fizz protection with clean feel and without greasy feel negative |  | % Water reduction [1, 3]: 30% |
| CCCCCCCCC(CO)CCCCCC (stereo not shown) [2-Hexyl-1-decanol] | provide frizz protection with clean feel and without greasy feel negative | 11 |  |
| O=C(OCCO)c1ccccc1O [2-Hydroxyethyl salicylate] | provide frizz protection with clean feel and without greasy feel negative | 10 |  |
| O=C(O)c1ccc(O)c(O)c1 [3,4-Dihydroxybenzoic acid] |  |  | % Water reduction [1, 3]: 20% |
| O=C(O)c1cccc(O)c1 [3-Hydroxybenzoic Acid] |  |  | % Water reduction [1, 3]: 20% |
| Nc1ccc(O)cc1 [4-Aminophenol] |  |  | % Water reduction [1, 3]: 10% |
| O=S(=O)(O)c1ccc(O)cc1 [4-Hydroxybenzenesulphonic acid] | provide fizz protection with clean feel and without greasy feel negative |  |  |
| O=C(O)c1cc(Cl)ccc1O [5-Chlorosalicylic acid] | provide fizz protection with clean feel and without greasy feel negative |  |  |
| CCOC(=O)c1cc(O)c(O)c(O)c1 [Ethyl gallate] |  | 17 |  |
| CCCCC/C=C\C/C=C\CCCCCCCC(=O)OCC [Ethyl linoleate] |  | 8 |  |
| CCCCCCCC/C=C\CCCCCCCC(=O)OCC(O)CO (stereo not shown) [Glyceryl monooleate] |  | 5 |  |
| CC(C)C(=O)O [Isobutyric acid] |  | 5 |  |
| CCCCCCCCCCCCCC(=O)OC(C)C [Isopropyl myristate] |  | 12 |  |
| CC(C)CCCCCCCCCCCCCCCOC(=O)CCCCCCCCCCCCCCC(C)C [Isostearyl isostearate] | provide frizz protection with clean feel and without greasy feel negative | 11 |  |
| CCCCCCCC/C=C\CCCCCCCC(=O)O [Oleic Acid] |  | 14 |  |
| C/C(=C\CO)CCC[C@H](C)CCC[C@H](C)CCCC(C)C [Phytol] |  | 14 |  |
| CCCCCC[C@@H](O)C/C=C\CCCCCCCC(=O)O [Ricinoleic acid] |  | 8.8 |  |
| O=C(O)c1ccccc1O [Salicylic acid] | provide fizz protection with clean feel and without greasy feel negative |  | % Water reduction ([1]; Table 6, 1% salicylic acid in ethanol:water (50:50), final pH 3.2 (column pH 3)): 30%; % Water reduction ([1]; Table 6, 1% salicylic acid in ethanol:water (50:50), final pH 4.2): 27%; % Water reduction ([1]; Table 6, 1% salicylic acid in ethanol:water (50:50), final pH 7): 22%; % Water reduction ([1]; Table 6, 1% salicylic acid in ethanol:water (50:50), final pH 10): 15% |
| COc1cc(/C=C/C(=O)O)ccc1O [Trans-Ferulic Acid] |  |  | % Water reduction [1, 3]: 6% |
| Sorbitan caprylate |  | 11 |  |
